System: 3eCIS (MsCYP72056)
Details: 250 µM NADPH; HEPES pH 7.5; 0-300 µM hirsuteine; CPR co-expressed

C=C[C@H]1CN2CCc3c([nH]c4ccccc34)[C@H]2C[C@@H]1/C(=C\OC)C(=O)OC [hirsuteine]
Km: 68.3 µM
